Test results published in ChEMBL document CHEMBL5154681, “Small Amphiphilic Peptides: Activity Against a Broad Range of Drug-Resistant Bacteria and Structural Insight into Membranolytic Properties” (J Med Chem, 2022).
Values after ≈ are worked out from the molar mass of the structure shown. Active and inactive are the calls of the source. The calls are words filed in the database; no cut-off is given here. Bridge positions count the residues as written; N and C are the ends. Square brackets hold non-standard residues; d marks the D form. Peptide text beside a SMILES is read from it. * marks the point of attachment. Dip = N[C@H](C(=O)O)C(c1ccccc1)c1ccccc1; X1 = CC[C@H](C)CCCCC(=O)*; Dab = NCC[C@H](N)C(=O)O

How the values were obtained:
Staphylococcus aureus [1] = assay: Bactericidal activity against methicillin resistant Staphylococcus aureus ATCC BAA-1556 assessed as time required for complete reduction of bacterial growth at MIC by counting formed colonies; format: functional
Streptococcus pneumoniae [2] = assay: Antibacterial activity against multidrug resistant […] ATCC 700677 incubated for 24 hrs by microtiter plate method; format: functional
Staphylococcus aureus [3] = assay: Bactericidal activity against methicillin resistant Staphylococcus aureus ATCC BAA-1556 assessed as reduction of bacterial growth at 4 times MIC by counting formed colonies; format: functional, organism-based; conditions: time <= 4.0 hrs, TDE = time-dependent effect
Staphylococcus aureus [4] = assay: Antibacterial activity against methicillin resistant Staphylococcus aureus ATCC BAA-1556 after 24 hrs in presence of 2 mM of CaCl2 by microtiter plate method; format: functional
Enterococcus faecalis [5] = assay: Antibacterial activity against Enterococcus faecalis ATCC 29212 incubated for 24 hrs by microtiter plate method; format: functional
Lipid bilayer [6] = assay: Membrano-lytic effect in bacterial inner membrane mimic DOPC/DOPG (7:3) large unilamellar vesicles assessed as calcein leakage measured upto 100 mins for every 10 mins by multimode microplate reader assay; format: cell membranes; conditions: dose 5-50 µg/ml, DDE = dose-dependent effect
Staphylococcus aureus [7] = assay: Antibacterial activity against Staphylococcus aureus ATCC 29213 incubated for 24 hrs by microtiter plate method; format: functional; conditions: Staphylococcus aureus, ATCC 29213, read-out: MIC
Staphylococcus aureus [8] = assay: Bactericidal activity against methicillin resistant Staphylococcus aureus ATCC BAA-1556 assessed as reduction of bacterial growth at MIC by counting formed colonies; format: functional, organism-based; conditions: time <= 4.0 hrs, TDE = time-dependent effect
Enterococcus faecium [9] = assay: Antibacterial activity against Enterococcus faecium ATCC 27270 incubated for 24 hrs by microtiter plate method; format: functional
Bacillus cereus = assay: Antibacterial activity against Bacillus cereus ATCC 13061 incubated for 24 hrs by microtiter plate method; format: functional
Staphylococcus aureus [10] = assay: Antibacterial activity against methicillin resistant Staphylococcus aureus ATCC BAA-1556 after 24 hrs in presence of fetal bovine serum by microtiter plate method; format: functional
Staphylococcus aureus [11] = assay: Antibacterial activity against methicillin resistant Staphylococcus aureus ATCC BAA-1556 incubated for 24 hrs; format: functional
Lipid bilayer [12] = assay: Membrano-lytic effect in bacterial inner membrane mimic DOPC/DOPG (7:3) large unilamellar vesicles assessed as calcein leakage measured at 50 microg/ml, incubated for 100 mins by multimode microplate reader assay; format: cell membranes; conditions: dose 50.0 µg/ml
Escherichia coli [13] = assay: Bactericidal activity against Escherichia coli ATCC BAA-2452 assessed as reduction of bacterial growth at MIC by counting formed colonies; format: functional, organism-based; conditions: time <= 4.0 hrs, TDE = time-dependent effect
Staphylococcus aureus [14] = assay: Antibacterial activity against methicillin resistant Staphylococcus aureus ATCC BAA-1556 after 24 hrs in presence of 4.5 mM of KCl by microtiter plate method; format: functional
Bacillus subtilis = assay: Antibacterial activity against Bacillus subtilis ATCC 6633 incubated for 24 hrs by microtiter plate method; format: functional
Staphylococcus aureus [15] = assay: Antibacterial activity against methicillin resistant Staphylococcus aureus ATCC BAA-1556 after 24 hrs in presence of 6 mM of NH4Cl by microtiter plate method; format: functional
Lipid bilayer [16] = assay: Membrano-lytic effect in mammalian membrane mimic DOPC/cholesterol (10:1) large unilamellar vesicles assessed as calcein leakage measured at 50 microg/ml measured upto 100 mins for every 10 mins by multimode microplate reader assay; format: cell membranes; conditions: dose 50.0 µg/ml
Staphylococcus aureus [17] = assay: Bactericidal activity against methicillin resistant Staphylococcus aureus ATCC BAA-1556 assessed as time required for complete reduction of bacterial growth at 4 times MIC by counting formed colonies; format: functional
Streptococcus pneumoniae [18] = assay: Antibacterial activity against […] ATCC 49619 incubated for 24 hrs by microtiter plate method; format: functional
Escherichia coli [19] = assay: Bactericidal activity against Escherichia coli ATCC BAA-2452 assessed as reduction of bacterial growth at 4 times MIC by counting formed colonies; format: functional, organism-based; conditions: time <= 4.0 hrs, TDE = time-dependent effect
Enterococcus faecium [20] = assay: Antibacterial activity against vancomycin-resistant Enterococcus faecium ATCC 700221 incubated for 24 hrs by microtiter plate method; format: functional
Enterococcus faecalis [21] = assay: Antibacterial activity against vancomycin-resistant Enterococcus faecalis ATCC 51575 incubated for 24 hrs by microtiter plate method; format: functional
Staphylococcus aureus [22] = assay: Antibacterial activity against methicillin resistant Staphylococcus aureus ATCC BAA-1556 after 24 hrs in presence of 1 mM of by microtiter plate method; format: functional
Staphylococcus aureus [23] = assay: Antibacterial activity against methicillin resistant Staphylococcus aureus ATCC BAA-1556 after 24 hrs in presence of 150 mM of NaCl by microtiter plate method; format: functional
Staphylococcus aureus [24] = assay: Antibacterial activity against methicillin resistant Staphylococcus aureus ATCC BAA-1556 incubated for 24 hrs by microtiter plate method; format: functional; conditions: Staphylococcus aureus, ATCC BAA-1556, 24 h, read-out: MIC
Acinetobacter baumannii = assay: Antibacterial activity against ciprofloxacin resistance Acinetobacter baumannii ATCC BAA1605 incubated for 24 hrs by microtiter plate method; format: functional
Escherichia coli [25] = assay: Antibacterial activity against Escherichia coli ATCC 25922 after 24 hrs in presence of fetal bovine serum by microtiter plate method; format: functional
Escherichia coli [26] = assay: Antibacterial activity against Escherichia coli ATCC 25922 after 24 hrs in presence of 150 mM NaCl by microtiter plate method; format: functional
Escherichia coli [27] = assay: Antibacterial activity against Escherichia coli ATCC 25922 after 24 hrs in presence of 2 mM CaCl2 at by microtiter plate method; format: functional
Escherichia coli [28] = assay: Antibacterial activity against Escherichia coli ATCC 25922 incubated for 24 hrs; format: functional
Klebsiella pneumoniae [29] = assay: Antibacterial activity against carbapenem-resistant Klebsiella pneumoniae ATCC BAA-2470 incubated for 24 hrs by microtiter plate method; format: functional
Escherichia coli [30] = assay: Antibacterial activity against Escherichia coli ATCC 25922 incubated for 24 hrs by microtiter plate method; format: functional; conditions: Escherichia coli
Escherichia coli [31] = assay: Antibacterial activity against Escherichia coli ATCC 25922 after 24 hrs in presence of 1 mM of MgCl2 at by microtiter plate method; format: functional
Pseudomonas aeruginosa [32] = assay: Antibacterial activity against imipenem resistant Pseudomonas aeruginosa ATCC BAA-1744 incubated for 24 hrs by microtiter plate method; format: functional
Pseudomonas aeruginosa [33] = assay: Antibacterial activity against Pseudomonas aeruginosa ATCC 27883 incubated for 24 hrs by microtiter plate method; format: functional; conditions: Pseudomonas aeruginosa
Pseudomonas aeruginosa [34] = assay: Antibacterial activity against Pseudomonas aeruginosa ATCC 10145 incubated for 24 hrs by microtiter plate method; format: functional
Klebsiella pneumoniae [35] = assay: Antibacterial activity against Klebsiella pneumoniae ATCC 13883 […] incubated for 24 hrs by microtiter plate method; format: functional
Escherichia coli [36] = assay: Antibacterial activity against Escherichia coli NDM-1-resistant ATCC BAA-2452 incubated for 24 hrs by microtiter plate method; format: functional
Escherichia coli [37] = assay: Antibacterial activity against Escherichia coli ATCC 25922 assessed as reduction in microbial growth after 24 hrs in presence of 6 mM of NH4Cl at by microtiter plate method; format: functional
Escherichia coli [38] = assay: Antibacterial activity against Escherichia coli ATCC 25922 after 24 hrs in presence of 4.5 mM of KCl at by microtiter plate method; format: functional
[39] = Selectivity ratio of MIC for antibacterial activity against Pseudomonas aeruginosa ATCC 10145 to MIC for antibacterial activity against imipenem-resistant Pseudomonas aeruginosa ATCC BAA-1744; format: functional
[40] = Selectivity ratio of MIC for antibacterial activity against Klebsiella pneumoniae ATCC 13883 to MIC for antibacterial activity against carbapenem-resistant Klebsiella pneumoniae ATCC BAA-2470; format: functional
[41] = Hemolytic activity in human RBC assessed as hemolysis incubated for 2 hrs by spectrophotometer analysis; format: toxicity, cell-based, Erythrocyte; conditions: human red blood cells (erythrocytes)

Compound | Activity (Staphylococcus aureus [1]) | MIC (Streptococcus pneumoniae [2]) [µg/mL] | Activity (Staphylococcus aureus [3]) | MIC (Enterococcus faecalis [5]) [µg/mL] | MIC (Staphylococcus aureus [7]) [µg/mL] | Activity (Staphylococcus aureus [8]) | MIC (Enterococcus faecium [9]) [µg/mL] | MIC (Bacillus cereus) [µg/mL] | Activity (Escherichia coli [13]) | MIC (Bacillus subtilis) [µg/mL] | Activity (Staphylococcus aureus [17]) | MIC (Streptococcus pneumoniae [18]) [µg/mL] | Activity (Escherichia coli [19]) | MIC (Enterococcus faecium [20]) [µg/mL] | MIC (Enterococcus faecalis [21]) [µg/mL] | MIC (Staphylococcus aureus [24]) [µg/mL] | MIC (Acinetobacter baumannii) [µg/mL] | MIC (Klebsiella pneumoniae [29]) [µg/mL] | MIC (Pseudomonas aeruginosa [32]) [µg/mL] | MIC (Pseudomonas aeruginosa [34]) [µg/mL] | other results
CCCCCCCCCC(=O)N[C@@H](Cc1c[nH]c2ccccc12)C(=O)N[C@H](CC(N)=O)C(=O)N[C@@H](CC(=O)O)C(=O)N[C@@H]1C(=O)NCC(=O)N[C@@H](CCCN)C(=O)N[C@@H](CC(=O)O)C(=O)N[C@H](C)C(=O)N[C@@H](CC(=O)O)C(=O)NCC(=O)N[C@H](CO)C(=O)N[C@@H]([C@H](C)CC(=O)O)C(=O)N[C@@H](CC(=O)c2ccccc2N)C(=O)O[C@@H]1C | Active | 12.5 (≈ 7.71 µM) | Tde | 6.25 (≈ 3.86 µM) | 0.7 (≈ 0.432 µM) | Tde | 1.5 (≈ 0.926 µM) | 1.5 (≈ 0.926 µM) | Tde | 0.7 (≈ 0.432 µM) | Active | 12.5 (≈ 7.71 µM) | Tde | 6.25 (≈ 3.86 µM) | 12.5 (≈ 7.71 µM) | 1.5 (≈ 0.926 µM) |  |  |  |  | MIC (Staphylococcus aureus [4]): 3.1 µg/mL; Activity (Lipid bilayer [6]): Dde; MIC (Staphylococcus aureus [10]): 3.1 µg/mL; MBC (Staphylococcus aureus [11]): 6.2 µg/mL (≈ 3.83 µM); Activity (Lipid bilayer [12]): 27%; MIC (Staphylococcus aureus [14]): 1.5 µg/mL; MIC (Staphylococcus aureus [15]): 1.5 µg/mL; Activity (Lipid bilayer [16]): 5%; MIC (Staphylococcus aureus [22]): 3.1 µg/mL; MIC (Staphylococcus aureus [23]): 0.7 µg/mL
CC[C@H](C)CCCCC(=O)N[C@@H](CCN)C(=O)N[C@H](C(=O)N[C@@H](CCN)C(=O)N[C@H]1CCNC(=O)[C@H]([C@@H](C)O)NC(=O)[C@H](CCN)NC(=O)[C@H](CCN)NC(=O)[C@H](CC(C)C)NC(=O)[C@@H](Cc2ccccc2)NC(=O)[C@H](CCN)NC1=O)[C@@H](C)O (X1-[Dab]T[Dab][Dab][Dab][dF]L[Dab][Dab]T; lactam 4-C) | Active |  | Tde |  | 0.7 (≈ 0.582 µM) | Tde |  |  | Tde |  | Active |  | Tde |  |  |  | 0.7 (≈ 0.582 µM) | 1.5 (≈ 1.25 µM) | 0.7 (≈ 0.582 µM) | 0.7 (≈ 0.582 µM) | MIC (Escherichia coli [25]): 3.1 µg/mL; MIC (Escherichia coli [26]): 0.7 µg/mL; MIC (Escherichia coli [27]): 0.7 µg/mL; MBC (Escherichia coli [28]): 3.1 µg/mL (≈ 2.58 µM); MIC (Escherichia coli [30]; ATCC 25922, read-out: MIC): 0.7 µg/mL (≈ 0.582 µM); MIC (Escherichia coli [31]): 1.5 µg/mL; MIC (Pseudomonas aeruginosa [33]; ATCC 27883, read-out: MIC): 0.7 µg/mL (≈ 0.582 µM); MIC (Klebsiella pneumoniae [35]): 6.2 µg/mL (≈ 5.15 µM); MIC (Escherichia coli [36]): 0.7 µg/mL (≈ 0.582 µM); MIC (Escherichia coli [37]): 0.7 µg/mL; MIC (Escherichia coli [38]): 0.7 µg/mL
N=C(N)NCCC[C@@H]1NC(=O)[C@H](CCCNC(=N)N)NC(=O)[C@H](C(c2ccccc2)c2ccccc2)NC(=O)[C@H](C(c2ccccc2)c2ccccc2)NC(=O)[C@H](C(c2ccccc2)c2ccccc2)NC(=O)[C@H](CCCNC(=N)N)NC1=O (cyclo([Dip][Dip][Dip]RRR)) |  | 25 (≈ 22 µM) |  | 12.5 (≈ 11 µM) | 3.1 (≈ 2.72 µM) |  | 3.1 (≈ 2.72 µM) | 6.2 (≈ 5.45 µM) |  | 3.1 (≈ 2.72 µM) |  | 50 (≈ 43.9 µM) |  | 6.2 (≈ 5.45 µM) | 12.5 (≈ 11 µM) | 3.1 (≈ 2.72 µM) | 25 (≈ 22 µM) | 12.5 (≈ 11 µM) | 25 (≈ 22 µM) | 50 (≈ 43.9 µM) | Ratio [39]: 2; Ratio [40]: 2; MIC (Escherichia coli [30]; ATCC 25922, 24 h, read-out: MIC): 12.5 µg/mL (≈ 11 µM); MIC (Pseudomonas aeruginosa [33]; ATCC 27883, 24 h, read-out: MIC): 12.5 µg/mL (≈ 11 µM); MIC (Klebsiella pneumoniae [35]): > 50 µg/mL; MIC (Escherichia coli [36]): 25 µg/mL (≈ 22 µM); HC50 at 2 h [41]: 45 µg/mL
